Laboratory results published in patent US4666890A, “Peptide, process for preparation thereof and use thereof” (priority 1978, dated 1987).

What was measured:
[1] = tested on: Mice (DDY male 5-6 W); experiment: Blood stream clearance of carbon; format: in vivo
Procedure: 1. Carbon suspension. Rotoring drawing ink (170 mg carbon/ml.) was diluted to 1/5 of the original concentration in saline containing 1% gelatin.
2. 0.1% aqueous sodium carbonate solution.
Mice (DDY male 5-6 W) were injected via the tail vein with a dose of 0.01 ml/g body weight of carbon. Blood samples were taken by means of a pointed capillary pippet calibrated to hold a 50 μl and previously washed in heparin. This was plunged into the retrooribital venous sinus at the nasal angle of the eye. The samples were removed at 3 and 6 min. The blood was immediately discharged into 3.0 ml. of the sodium carbonate solution. This hemolyszed the blood and allowed the quantitation of carbon. The samples were then read in a spectrophotometer at 660 nm, the log concentration being obtained from a previously determined standard curve. The clearance value K may be determined by plotting log carbon concentration against time according to the following relationship; [formula] in which T1 and T2 represent the time in min when the sample were withdrawn and C1 and C2 represent the concentrations of carbon in the blood at the time T1 and T2, respectively.
The aqueous solution of the test compound as given was administered subcutaneously to mice. Twenty four hours later, blood stream clearance of carbon was measured. K value obtained with treated mice was compared with that of control mice.

[2] = tested on: mice; experiment: Acute toxicity in mice; format: in vivo; conditions: 1 g/kg (i.v.)
From the text: ACUTE TOXICITY IN MICE of FR-900156
1 g/kg (i.v.): no toxicity.

Structure (SMILES)	Ktreated /Kcontrol ([1]; dose 1 mg/mouse)	Ktreated /Kcontrol ([1]; dose 10 mg/mouse)	Acute toxicity in mice [2]
c1ccc([C@H]2CN3CCSC3=N2)cc1 [Levamisol]	0.5	death	
C[C@H](NC(=O)[C@@H](C)O)C(=O)N[C@H](CCC(=O)N[C@@H](CCC[C@@H](N)C(=O)O)C(=O)NCC(=O)O)C(=O)O [FR-900156 substance]			no toxicity
